Legend:
CST axons = assay: CST regrowth (axon regeneration and midline-crossing sprouting) after T10 lateral hemisection; assay type: in vivo, mouse; settings: AAV-expressed; for regrowth of injured CST axons at the lesion site: horizontal sections covering the lesion; for sprouting of intact CST axons across midline into the denervated side: spinal levels below the injury site
Excerpt: Since the mice treated with AAV-OPN/IGF1 were co-injected with AAV-channel rhodopsin (ChR2)-mCherry (AAV-ChR2-mCherry) or AAV-ChR2-YFP to the ipsi-lateral or contra-lateral cortex, respectively, at the termination of behavioral assessment, a post hoc examination of the T10 lateral hemisection histology was first performed. Mice with incomplete- or over-hemisection could be readily identified by analyzing labeled CST axons at the lumbar spinal cord and excluded from further analysis (FIG. 2A). CST regrowth was examined by preparing horizontal spinal cord sections covering the lesion sites to assess axon regeneration across the lesion site, and transverse sections of lower spinal cord segments to assess midline-crossing of CST axons from intact side. […] Thus, these sprouting axons play an important role in the observed functional recovery. Therefore, combined treatment of AAV-OPN and AAV-IGF1 not only promotes CST regrowth but also CST-dependent behavioral performance.
Axon Counting and Quantification. To quantify the number of sprouting axons, a horizontal line was firstly drawn through the central canal and across the lateral rim of the gray matter. Three vertical lines (Mid, Z1, and Z2) were drawn to divide the horizontal line into three equal parts, starting from the central canal to the lateral rim. While Mid denotes midline crossing fibers, Z1 and Z2 are for sprouting fibers at different distance from the midline. Only fibers crossing the three lines were counted on each section. The results were presented after normalization with the number of counted CST fibers at the medulla level.
For quantifying total labeled CST axon, AAV-ChR2-YFP (FIG. 4D) or AAV-ChR2-mCherry (FIGS. 4C, 7E and 8E) labeled CST fibers were counted at the level of medulla oblongata 1 mm proximal to the pyramidal decussation. Axons were estimated by counting 4 rectangular areas (about 10000 μm^2/area) per section on two adjacent sections.
To quantify the regenerating axons (FIG. 4D), the number of intersections of chR2-YFP-labeled fibers with a dorsal-ventral line positioned at a defined distance caudal from the lesion center was counted under a 25X objective. Fibers were counted on 3 sections with the main dorsal CST and 1-3 lateral sections with collaterals in the gray matter. The number of counted fibers was normalized by the number of labeled CST axons in the medulla and divided by the number of evaluated sections.

optic nerve axons = assay: Optic nerve axon regeneration after optic nerve crush; assay type: in vivo, mouse
Description: The effects of various forms of active OPN were assessed for their capacity to promote optic nerve axon regeneration in an induced injury model. To express the various forms of active OPN AAVs expressing all forms of mouse OPN were injected intravitreally in anesthetized mice. To induce the injury model the optic nerves were crushed using a pair of forceps two weeks after intravitreal injection. Recombinant proteins (CNTF, IGF1, BDNF) were injected at 0 and 7 days after the crush (1 ul each, 1 ug/ul). Fluorescent cholera toxin beta subunit (CTB-555) was injected intravitreally 12 days after crush to trace the axons before the tissues were fixed 14 days after crush, sectioned and imaged.

p-IGFRβ = assay: phospho-IGFRβ immunostaining in corticospinal neurons after cortical injection of recombinant proteins, T10 lateral hemisection; assay type: in vivo, mouse; settings: intact or axotomized mature CSNs; recombinant protein alone
Excerpt: (§1) However, it is unknown whether IGF1 triggers similar signaling activation in adult CSNs and, if so, whether it could be altered by OPN treatment. Thus CSNs were labeled by spinal injection of HiRet-GFP, performed T10 lateral hemisection, and then bilaterally injected recombinant IGF, OPN or OPN/IGF1 proteins were bilaterally injected into the cortex (FIG. 5A). In 3 days, the cortical sections from both injured and intact sides of adult mice were immunostained for three factors. Anti-IGFR, anti-phospho-IGFRβ, an indicator for the activation of the IGF-1 mediated signaling pathways (Hernandez-Sanchez et al., 1995; Siddle, 2012), and anti-phospho-S6 (p-S6), an established marker of mTOR activation, one of the downstream target of IGF1 mediated signaling pathways (Liu et al., 2010; Pollak, 2008).
(§2) Virus and Protein Injection. […]
(§3) Immunohistochemistry and Imaging. […] To quantify and compare fluorescence intensity of IGFR, pIGFRβ and pS6 in GFP+ CSNs (FIGS. 2C-2E), CST axons in the dorsal funiculus (FIG. 3G) and CD68 staining (FIG. 10F) and corticofugal projections at multiple subcortical areas (FIG. 7B), and axon density of the intact side in the spinal cord (FIGS. 8E and 8F), all images used for analysis under multiple conditions were taken using the same optical parameters and avoided for saturation. […]

p-S6 = assay: phospho-S6 immunostaining (mTOR activation) in corticospinal neurons after cortical injection of recombinant proteins, T10 lateral hemisection; assay type: in vivo, mouse; settings: intact and axotomized CSNs; recombinant proteins injected into cortex
Excerpt: as §1, §2, §3

[1] = test system: mice with T10 lateral hemisection; assay: Irregular ladder walking after spinal cord T10 lateral hemisection; assay type: in vivo, mouse; settings: for error rate, irregular walking task, denervated hindlimb: 12 weeks after injury, AAV injected into sensorimotor cortex 1 day after injury; for performance in irregular ladder, overground, or treadmill walking: injured mice with AAV-OPN/IGF1 or AAV-PLAP, 14 weeks post injury, i.p., quipazine 0.2 mg/kg, 8-OH-DPAT 0.1 mg/kg, SKF 0.1 mg/kg
Description: (§4) Injury Models. […] Briefly, a midline incision was made over the thoracic vertebrae, followed by a T10 laminectomy. The unilateral hemisection was then performed carefully using both scalpel and micro-scissors, avoiding, to the greatest extent, the damage of the spinal cord dura. The muscle layers were then sutured and the skin was secured with wound clips. All mice received post hoc histological analysis and those with spared CST axons (incomplete lateral hemisection) or with significant less CST axons on the contra-lesional side (over lateral hemisection) at the lumbar spinal cord (L3), exemplified in FIG. 9A, were excluded for behavioral analysis.
Virus and Protein Injection.
Irregular Ladder Walking. […] Briefly, the ladder was elevated 30 cm above the ground. […] To prevent animals from learning the pattern, the irregular pattern was changed from trial to trial. All trials were video recorded (Hotshot e64, 100 fps) and paw placement was analyzed twice by blinded observers. Steps with precise placement of the center of the palm on the rung (for both forelimbs and hindlimbs) and digits closed (for forelimbs) were defined as correct steps (hit). All other steps were recorded as errors, which included two types: 1) Miss: when crossing the ladder, the forelimb/hindlimb either completely miss the rung or contact the rung with the wrist/heel instead of the paw; 2) Slip: when crossing the ladder, the mice use a few digits instead of the paw to place on the rungs, causing the subsequent slip on the rungs. The results were expressed as both percentage of total errors and percentage of different placement categories (hit, miss and slip).
(§5) Pharmacological Treatment. […] All behavioral tests were then accomplished between 1-3 hours post administration.

injured mice = assay: Adverse effects of systemic potassium channel blockers in injured mice; assay type: in vivo; settings: doses above 1 mg/kg (3 mg/kg tested), injured mice
Description: Chemicals and Antibodies. For systematic administration (i.p.), Quipazine [Sigma (Q1004), 0.2 mg/kg), SKF-82197 [Tocris (1447) 0.1 mg/kg], and 8-OH-DPAT [Tocris (0529), 0.1 mg/kg), 4AP [Sigma (275875), 1 mg/kg, 3 mg/kg), 4AP-MeOH [Santa Cruz (sc-267247), (1 mg/kg)] were dissolved in saline. Tamoxifen (Sigma, 10540-29-1) was dissolved in oil. For diphtheria toxin mediated cell ablation, we purchased the diptheria toxin from Sigma (D0564). For immunostaining, the primary antibody used were chicken anti-GFP [Abcam (Cat: ab13970)], rabbit anti-RFP [Abcam (Cat: ab34771)], rabbit anti-PKCγ [Santa Cruz (sc211)], rabbit anti-GFAP [DAKO (Z0334)]; rabbit anti-5-HT [Immunostar (20080)], rabbit-anti-IGFR [Santa Cruz (sc-712)] rabbit-anti-pIGFR[3 [Cell signaling technology (3024)], rabbit-anti-pS6 [Cell signaling technology (4857)], rat anti-CD68 [Bio-Rad (MCA 1957)], and Guinea pig-anti-Vglut1 [Synaptic Systems (135304)].
Pharmacological Treatment. […] A pilot experiment was performed and determined that 4AP (1 mg/kg, 3 mg/kg) and 4AP-MeOH (1 mg/kg) achieved their maximal effects within 1-3 hours post systematic administration (i.p.). […]

[2] = test system: mice with T10 lateral hemisection; assay: Ground walking and treadmill walking after T10 lateral hemisection; assay type: in vivo, mouse; settings: i.p.
Description: as §4, §5

Molecule: OPN: recombinant osteopontin (OPN) protein (Peprotech), injected into cortex or intravitreally
- regrowth of injured CST axons at the lesion site (CST axons): significant die-back from the lesion site
- sprouting of intact CST axons across midline into the denervated side (CST axons): little sprouting across midline
- effect of OPN added to CNTF on optic nerve axon regeneration (optic nerve axons; OPN with CNTF): no added effect
- effect of recombinant OPN protein on the optic nerve (optic nerve axons; intravitreal application, combined with IGF1 (FIG. 20)): pro-regenerative effects
- effect on p-IGFRβ (p-IGFRβ): no overt effect
- effect on p-S6 levels (p-S6): not IGF1 or OPN alone
- error rate, irregular walking task, denervated hindlimb [1]: ~70%

Molecule: c1ccc2nc(N3CCNCC3)ccc2c1 [quipazine]
- performance in irregular ladder, overground, or treadmill walking [1]: failed to improve

Molecule: Oc1cc2c(c(Cl)c1O)CCNCC2c1ccccc1 (stereo not drawn) [SKF]
- performance in irregular ladder, overground, or treadmill walking [1]: failed to improve
- hindlimb performance in irregular ladder walking on the denervated side ([1]; injured mice, i.p. 0.1 mg/kg): deteriorated the hindlimb performance

Molecule: Nc1ccncc1 [4-AP, 4-aminopyridine]
- adverse effect at higher doses (injured mice): seizures
- recovery of treadmill walking performance compared to the control [2]: neither 4-AP nor 4-AP-MeOH had significant effects
- error rates, irregular ladder walking task ([1]; 1 mg/kg i.p., mice with OPN/IGF1 treatment): showed a trend of reducing the error rates in mice with OPN/IGF1 treatment, but failed to reach statistical significance

Molecule: CCCN(CCC)C1CCc2cccc(O)c2C1 (stereo not drawn) [8-OH-DPAT]
- performance in irregular ladder, overground, or treadmill walking [1]: failed to improve

Molecule: IGF1: recombinant human insulin-like growth factor 1 (Peprotech)
- regrowth of injured CST axons at the lesion site (CST axons): significant die-back from the lesion site
- sprouting of intact CST axons across midline into the denervated side (CST axons): little sprouting across midline
- dose dependence of the regenerative effect (optic nerve axons; combined with OPN): dosage dependent
- effect on p-IGFRβ (p-IGFRβ): no overt effect
- effect on p-S6 levels (p-S6): not IGF1 or OPN alone
- error rate, irregular walking task, denervated hindlimb [1]: ~70%

B1: recombinant CNTF: recombinant CNTF protein injected after optic nerve crush (protein, UniProt P26441 1-200, looked up)
Ciliary neurotrophic factor: MAFTEHSPLTPHRRDLCSRSIWLARKIRSDLTALTESYVKHQGLNKNINLDSADGMPVASTDQWSELTEAERLQENLQAYRTFHVLLARLLEDQQVHFTPTEGDFHQAIHTLLLQVAAFAYQIEELMILLEYKIPRNEADGMPINVGDGGLFEKKLWGLKVLQELSQWTVRSIHDLRFISSHQTGIPARGSHYIANNKKM
- optic nerve regeneration (optic nerve axons; intravitreal AAV 2 weeks before crush, recombinant proteins at 0 and 7 days after crush (1 ul, 1 ug/ul), 14 days after crush): no effect

Reference: patent US11484576B2, “Methods of promoting corticospinal neuronal outgrowth in neuronal lesions using a pro-regenerative human osteopontin fragment” (THE CHILDREN'S MEDICAL CENTER CORPORATION, priority 2017, dated 2022)
